These results are taken from patent US12129246B1, “Hydroquinazoline derivatives for the treatment of a disease or disorder” (Novartis AG, priority 2023, dated 2024).

Read-outs that look alike come from different tables or passages of the source.

One test addresses T1, human NPR1 (Homo sapiens, UniProt P16066).
T1 construct: host or cells: CHO-K1
T1 sequence (P16066 33-1061): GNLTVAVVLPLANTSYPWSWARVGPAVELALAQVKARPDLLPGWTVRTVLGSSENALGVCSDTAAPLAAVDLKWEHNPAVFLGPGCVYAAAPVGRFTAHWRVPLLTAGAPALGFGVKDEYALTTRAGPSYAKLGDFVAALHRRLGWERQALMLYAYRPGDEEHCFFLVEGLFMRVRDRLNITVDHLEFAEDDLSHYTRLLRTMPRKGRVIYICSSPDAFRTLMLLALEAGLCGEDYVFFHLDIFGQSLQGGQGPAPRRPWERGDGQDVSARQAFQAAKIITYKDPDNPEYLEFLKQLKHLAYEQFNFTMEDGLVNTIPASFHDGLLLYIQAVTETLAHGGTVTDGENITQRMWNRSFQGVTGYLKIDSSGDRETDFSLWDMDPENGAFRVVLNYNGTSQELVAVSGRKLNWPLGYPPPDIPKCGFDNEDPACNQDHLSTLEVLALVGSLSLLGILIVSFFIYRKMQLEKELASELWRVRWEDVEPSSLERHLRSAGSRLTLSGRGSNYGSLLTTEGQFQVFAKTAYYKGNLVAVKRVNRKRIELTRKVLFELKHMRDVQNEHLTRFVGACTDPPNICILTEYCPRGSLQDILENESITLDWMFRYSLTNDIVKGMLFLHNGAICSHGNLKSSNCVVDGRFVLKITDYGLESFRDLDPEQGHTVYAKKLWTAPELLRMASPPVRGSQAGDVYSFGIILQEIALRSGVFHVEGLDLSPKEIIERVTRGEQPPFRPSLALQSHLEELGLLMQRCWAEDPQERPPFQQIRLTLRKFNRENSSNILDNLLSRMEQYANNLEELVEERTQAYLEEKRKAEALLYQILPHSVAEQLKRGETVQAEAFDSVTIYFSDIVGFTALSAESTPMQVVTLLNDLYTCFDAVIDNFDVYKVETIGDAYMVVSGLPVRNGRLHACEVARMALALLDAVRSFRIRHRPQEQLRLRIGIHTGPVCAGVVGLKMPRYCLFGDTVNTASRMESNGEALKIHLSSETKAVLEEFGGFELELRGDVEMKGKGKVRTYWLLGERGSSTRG
Briefly: Cellular cGMP production assay, human NPR1 expressing CHO-K1 cells (CisBio HTRF). The note with it: for AC50: cGMP production, 30 min at 37° C., 12-point dose-response from 30 μM; for Human NPR1 Amax (% of ANP): maximum cGMP production as percentage of the maximum cGMP produced with ANP. Format: cell-based. Summed up:
(§1)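 12-pt 3-fold dose-response, top 30 μM; buffer PBS + 0.1% BSA + 1 mM IBMX (PDE inhibitor); 30 min, 37 °C. Lyse, add cGMP-d2 + anti-cGMP-cryptate, 1 h RT. Ex 317 / em 665 nm; Delta F converted to cGMP via calibrator standard curve.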
(Time-resolved FRET reads energy transfer from a long-lived donor to a nearby acceptor.)

The next test deals with monkey NPR1 (Macaca fascicularis, UniProt A0A7N9DBT9). Briefly: Cellular cGMP production assay, monkey NPR1 expressing CHO-K1 cells (CisBio HTRF). The settings on record: for Monkey NPR1 Amax (% of ANP): maximum cGMP production as percentage of the maximum cGMP produced with ANP. Format: cell-based. A digest of the protocol:
as §1

The mark [1] stands for this setting: cGMP production, monkey NPR1 CHO-K1 cells, 30 min at 37° C., 12-point dose-response from 30 μM, read-out: Monkey NPR1 AC50.

Sequence of monkey NPR1 (A0A7N9DBT9 entry or part of it): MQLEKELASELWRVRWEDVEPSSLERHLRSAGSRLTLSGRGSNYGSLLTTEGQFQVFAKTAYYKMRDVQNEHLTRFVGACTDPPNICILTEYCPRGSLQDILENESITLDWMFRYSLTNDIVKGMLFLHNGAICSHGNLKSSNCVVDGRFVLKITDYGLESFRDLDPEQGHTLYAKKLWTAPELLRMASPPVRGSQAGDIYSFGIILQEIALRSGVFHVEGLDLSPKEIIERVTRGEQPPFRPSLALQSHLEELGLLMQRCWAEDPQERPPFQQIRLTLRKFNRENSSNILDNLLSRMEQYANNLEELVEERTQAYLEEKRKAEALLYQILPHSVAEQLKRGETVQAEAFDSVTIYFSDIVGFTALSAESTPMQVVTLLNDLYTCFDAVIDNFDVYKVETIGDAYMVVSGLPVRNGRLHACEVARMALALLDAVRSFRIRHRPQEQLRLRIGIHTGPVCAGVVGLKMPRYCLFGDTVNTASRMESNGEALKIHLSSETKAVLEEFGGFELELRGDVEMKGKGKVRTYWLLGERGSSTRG

`CC[C@H](N(C)c1nc2c(c(N[C@@H](CN3C4CCCC3CC4)c3cnn(C)c3)n1)C[C@](C)(c1ccccc1)CC2)C12CC(C(=O)O)(C1)C2` [Compound 69, 3-((1S)-1-(((6R)-4-(((1R)-2-(8-azabicyclo[3.2.1]octan-8-yl)-1-(1-methyl-1H-pyrazol-4-yl)ethyl)amino)-6-methyl-6-phenyl-5,6,7,8-tetrahydroquinazolin-2-yl)(methyl)amino)propyl)bicyclo[1.1.1]pentane-1-carboxylic acid]: the AC50 (as a rule, the midpoint of the concentration-response curve, whichever way the signal moves) came to 234 nM at human NPR1 and 220 nM on monkey NPR1. Also, the “Human NPR1 Amax (% of ANP)” value at human NPR1 is 98.634 % of ANP. Besides, on monkey NPR1 (monkey NPR1 CHO-K1 cells), the “Monkey NPR1 Amax (% of ANP)” value is on record as 100.449 % of ANP.
Consider `CC[C@@H](Nc1nc2c(c(N[C@@H](CN3C4CCCC3CCC4)c3cnn(C)c3)n1)C[C@H](c1cccc(F)c1)CC2)[C@H]1CC[C@H](C(=O)O)CC1` [Compound 15, (1R,4r)-4-((R)-1-(((R)-4-(((R)-2-((1S,5S)-9-azabicyclo[3.3.1]nonan-9-yl)-1-(1-methyl-1H-pyrazol-4-yl)ethyl)amino)-6-(3-fluorophenyl)-5,6,7,8-tetrahydroquinazolin-2-yl)amino)propyl)cyclohexane-1-carboxylic acid], for which, at human NPR1, the AC50 came to 102 nM and the “Human NPR1 Amax (% of ANP)” value was 106.001 % of ANP. Half-maximal activity on monkey NPR1 (AC50) was put at 92 nM. In addition, at monkey NPR1 (monkey NPR1 CHO-K1 cells), the “Monkey NPR1 Amax (% of ANP)” value was 109.175 % of ANP.
Consider `CC[C@@H](N(C)c1nc2c(c(N[C@@H](CN3CCC[C@H](C)C3)c3cnn(C)c3C)n1)C[C@H](c1cccc(F)c1)CC2)C12CC(C(=O)O)(C1)C2` [Compound 46], for which, at human NPR1, the AC50 turned out to be 179 nM and the “Human NPR1 Amax (% of ANP)” value was 93.728 % of ANP. Besides, the AC50 at monkey NPR1 (setting [1]) came to 146 nM. The “Monkey NPR1 Amax (% of ANP)” value on monkey NPR1 (monkey NPR1 CHO-K1 cells) is 101.294 % of ANP.
In the same order, the values of `CC[C@@H](Nc1nc2c(c(N[C@@H](CN3CCCCCC3)c3cnn(CC)c3)n1)C[C@H](c1ccccc1)CC2)[C@H]1CC[C@H](C(=O)O)CC1` [Compound 94, (1R,4r)-4-((R)-1-(((R)-4-(((R)-2-(azepan-1-yl)-1-(1-ethyl-1H-pyrazol-4-yl)ethyl)amino)-6-phenyl-5,6,7,8-tetrahydroquinazolin-2-yl)amino)propyl)cyclohexane-1-carboxylic acid] are 326 nM, 101.620 % of ANP, 226 nM and 105.567 % of ANP.
In the same order, the values of `CC[C@H]([C@H]1CC[C@H](C(=O)O)CC1)N(C)c1nc2c(c(N[C@@H](CN3CCCCC3)c3cnn(C)c3)n1)C[C@](C)(c1ccccc1)CC2` [Compound 66, (1R,4r)-4-((R)-1-(methyl((R)-6-methyl-4-(((R)-1-(1-methyl-1H-pyrazol-4-yl)-2-(piperidin-1-yl)ethyl)amino)-6-phenyl-5,6,7,8-tetrahydroquinazolin-2-yl)amino)propyl)cyclohexane-1-carboxylic acid] are 219 nM, 96.868 % of ANP, 123 nM and 98.088 % of ANP.
Take `CC[C@H]([C@H]1CC[C@H](C(=O)O)CC1)N(C)c1nc2c(c(N[C@@H](CN3CCC[C@H](C)C3)c3cnn(C)c3)n1)CN(c1cccc(F)c1)CC2` [Compound 124, (1R,4r)-4-((R)-1-((6-(3-fluorophenyl)-4-(((R)-1-(1-methyl-1H-pyrazol-4-yl)-2-((S)-3-methylpiperidin-1-yl)ethyl)amino)-5,6,7,8-tetrahydropyrido[4,3-d]pyrimidin-2-yl)(methyl)amino)propyl)cyclohexane-1-carboxylic acid]: at human NPR1, the AC50 was 617 nM and the “Human NPR1 Amax (% of ANP)” value is 106.069 % of ANP. The AC50 on monkey NPR1 (setting [1]) was 406 nM. Besides, the “Monkey NPR1 Amax (% of ANP)” value at monkey NPR1 (monkey NPR1 CHO-K1 cells) is 101.428 % of ANP.
On to `CC[C@@H](N(C)c1nc2c(c(N[C@@H](CN3C4CCCC3CCC4)c3ccnn3C)n1)C[C@H](c1ccccc1)CC2)C12CC(C(=O)O)(C1)C2` [Compound 172, 3-((R)-1-(((R)-4-(((S)-2-((1R,5R)-9-azabicyclo[3.3.1]nonan-9-yl)-1-(1-methyl-1H-pyrazol-5-yl)ethyl)amino)-6-phenyl-5,6,7,8-tetrahydroquinazolin-2-yl)(methyl)amino)propyl)bicyclo[1.1.1]pentane-1-carboxylic acid], for which, on human NPR1, the AC50 was 3680 nM and the “Human NPR1 Amax (% of ANP)” value is listed as 94.632 % of ANP. The AC50 at monkey NPR1 turned out to be 2580 nM. Moreover, the “Monkey NPR1 Amax (% of ANP)” value at monkey NPR1 (monkey NPR1 CHO-K1 cells) is 111.107 % of ANP.
In the case of `CC[C@H]([C@H]1CC[C@H](C(=O)O)CC1)N(C)c1nc2c(c(N[C@@H](CN3CCC(O)CC3)c3cnn(CC)c3)n1)C[C@H](c1ccccc1)CC2` [Compound 154, (1R,4r)-4-((R)-1-(((R)-4-(((R)-1-(1-ethyl-1H-pyrazol-4-yl)-2-(4-hydroxypiperidin-1-yl)ethyl)amino)-6-phenyl-5,6,7,8-tetrahydroquinazolin-2-yl)(methyl)amino)propyl)cyclohexane-1-carboxylic acid], the AC50 on human NPR1 is 1240 nM; at monkey NPR1 (setting [1]), 802 nM. In addition, the “Human NPR1 Amax (% of ANP)” value on human NPR1 was 105.125 % of ANP. Further, the “Monkey NPR1 Amax (% of ANP)” value at monkey NPR1 (monkey NPR1 CHO-K1 cells) is 97.456 % of ANP.
For `CC[C@H]([C@H]1CC[C@H](C(=O)O)CC1)N(C)c1nc2c(c(N[C@@H](CN3CCC[C@H](CO)C3)c3cnn(C)c3)n1)C[C@H](c1cccc(F)c1)CC2` [Compound 72, (1R,4r)-4-((R)-1-(((R)-6-(3-fluorophenyl)-4-(((R)-2-((S)-3-(hydroxymethyl)piperidin-1-yl)-1-(1-methyl-1H-pyrazol-4-yl)ethyl)amino)-5,6,7,8-tetrahydroquinazolin-2-yl)(methyl)amino)propyl)cyclohexane-1-carboxylic acid], in that order: 242 nM, 137 nM, 99.718 % of ANP and 104.824 % of ANP.
For `CC[C@H]([C@H]1CC[C@H](C(=O)O)CC1)N(C)c1nc2c(c(N[C@@H](CN3C4CCCC3COC4)c3cnn(C)c3)n1)C[C@H](c1ccccc1)CC2` [Compound 169, (1R,4r)-4-((R)-1-(((R)-4-(((R)-2-((1R,5S)-3-oxa-9-azabicyclo[3.3.1]nonan-9-yl)-1-(1-methyl-1H-pyrazol-4-yl)ethyl)amino)-6-phenyl-5,6,7,8-tetrahydroquinazolin-2-yl)(methyl)amino)propyl)cyclohexane-1-carboxylic acid], the results for the AC50 on human NPR1 and on monkey NPR1 were 2670 nM and 1920 nM, respectively. Moreover, the “Human NPR1 Amax (% of ANP)” value on human NPR1 is on record as 67.375 % of ANP. Also, on monkey NPR1 (monkey NPR1 CHO-K1 cells), the “Monkey NPR1 Amax (% of ANP)” value was 96.574 % of ANP.
In the same order, the values of `CC[C@@H](Nc1nc2c(c(N[C@@H](CN3C4CCCC3CCC4)c3cnn(CC)c3)n1)C[C@H](c1cccc(F)c1)CC2)[C@H]1CC[C@H](C(=O)O)CC1` [Compound 17, (1R,4r)-4-((R)-1-(((R)-4-(((R)-2-((1S,5S)-9-azabicyclo[3.3.1]nonan-9-yl)-1-(1-ethyl-1H-pyrazol-4-yl)ethyl)amino)-6-(3-fluorophenyl)-5,6,7,8-tetrahydroquinazolin-2-yl)amino)propyl)cyclohexane-1-carboxylic acid] are 105 nM, 68 nM, 97.959 % of ANP and 99.682 % of ANP.
In the same order, the values of `CC[C@@H](N(C)c1nc2c(c(N[C@@H](CN3C4CCCC3CC4)c3cnn(CC)c3)n1)C[C@H](c1cccc(F)c1)CC2)C12CC(C(=O)O)(C1)C2` [Compound 42, 3-((1R)-1-(((6R)-4-(((1R)-2-(8-azabicyclo[3.2.1]octan-8-yl)-1-(1-ethyl-1H-pyrazol-4-yl)ethyl)amino)-6-(3-fluorophenyl)-5,6,7,8-tetrahydroquinazolin-2-yl)(methyl)amino)propyl)bicyclo[1.1.1]pentane-1-carboxylic acid] are 169 nM, 146 nM, 92.080 % of ANP and 101.138 % of ANP.
